Tested on: corneas of colored rabbit after excimer laser abrasion
Experiment: accelerating activity for corneal wound healing after excimer laser treatment (histological observation of corneal slices)
Format: in vivo
Details: eye drop 100 μg/ml; for epithelium regeneration in the excimer-laser irradiated portion / inflammatory changes / thickness of the regenerated epithelium / vacuolation and fibroblast growth in the tunica propria / under the epithelium: single droplet twice a day for 5 to 7 days, optical microscope
Method: The following tests were performed with respect to the accelerating activity for the corneal wound healing after excimer laser treatment.
HP 1 and HP 2 were diluted with 1.2 ml of an oxyglutathion eye-perfusion/washing solution (trade name: BSS plus, manufactured by Santen Seiyaku) to obtain a diluted solution in a final concentration of 0.1 mg/ml. 1000 μg/ml of EGF was diluted with 1 ml of the oxyglutathion eye-perfusion/washing solution to obtain a diluted solution in a final concentration of 0.1 mg/ml. FN was diluted with 10 ml of the oxyglutathion eye-perfusion/washing solution to obtain a diluted solution in a final concentration of 0.1 mg/ml.
A colored rabbit was used as a test animal. The following surgical operation was applied to the rabbit.
An excimer laser was radiated to the corneas of both eyes of the rabbit under the condition of 180 mj/10 nsec (10 Hz) per pulse. By this radiation, the surface of central corneal parenchyma was cut off by abrasion in the form of a meniscus having a diameter of 4.5 mm (9.9 diopter) and a maximum center-depth of 70 μm. The excimer laser was radiated by using Omunimed (trade name) manufactured by Summit (U.S.A.).
Each of the aforementioned samples was administered to both eyes twice a day. A single droplet (about 50 μl) was administrated once in the morning and the afternoon for 5 to 7 days.
As Comparative examples, eye drops were prepared by dissolving the aforementioned samples in the oxyglutathion eye perfusion/washing solution in accordance with Table 2 and administered to both eyes of the rabbit.
After completion of droplet administration, right and left eyes were taken out from the rabbit and fixed with a glutathion aldehyde/formalin fixing solution. After the fixation, each cornea including a laser irradiated portion and a non-irradiated portion were excised out. Then, paraffin blocks were prepared in accordance with a customary method and thin-film slices of 5 μm thick were prepared by means of a microtome. The obtained corneal slices were stained with H.E. (hematoxylin-eosin) and then subjected to special staining such as PAS or trichrome.

Compound	overall corneal wound healing accelerating / corneal therapeutic effect (conclusion) (after excimer laser treatment)	epithelium regeneration in the excimer-laser irradiated portion	inflammatory changes	thickness of the regenerated epithelium	vacuolation and fibroblast growth in the tunica propria / under the epithelium
CC[C@H](C)[C@H](NC(=O)[C@H](Cc1ccc(O)cc1)NC(=O)[C@@H]1CCCN1C(=O)[C@H](CCCNC(=N)N)NC(=O)[C@H](CCCNC(=N)N)NC(C)=O)C(=O)N[C@@H](CC(C)C)C(=O)O [HP2, N-acetyl-Arg-Arg-Pro-Tyr-Ile-Leu-OH]	confirmed to have an corneal wound healing accelerating effect	observed in the entire irradiated portion	not observed	nonuniform	Vacuolation and fibroblast growth were observed
EGF: epithelial cell growth factor, manufactured by Bio Medical Technologies	–	observed in the entire irradiated portion	inflammatory changes were observed	nearly uniform	vacuolation and fibroblast growth were observed
fibronectin [FN]	–	observed in the entire irradiated portion	inflammatory changes were observed	nonuniform	relatively significant
